Reference: BindingDB's records for doi:10.1124/jpet.105.087809 (Universit&Aagrove, 2005)

Assays:
[1] = target: D(2) dopamine receptor (Rattus norvegicus, UniProt P61169)
[2] = target: T1, Alpha-1B adrenergic receptor (Homo sapiens, UniProt P35368)
T1 sequence (P35368 whole entry): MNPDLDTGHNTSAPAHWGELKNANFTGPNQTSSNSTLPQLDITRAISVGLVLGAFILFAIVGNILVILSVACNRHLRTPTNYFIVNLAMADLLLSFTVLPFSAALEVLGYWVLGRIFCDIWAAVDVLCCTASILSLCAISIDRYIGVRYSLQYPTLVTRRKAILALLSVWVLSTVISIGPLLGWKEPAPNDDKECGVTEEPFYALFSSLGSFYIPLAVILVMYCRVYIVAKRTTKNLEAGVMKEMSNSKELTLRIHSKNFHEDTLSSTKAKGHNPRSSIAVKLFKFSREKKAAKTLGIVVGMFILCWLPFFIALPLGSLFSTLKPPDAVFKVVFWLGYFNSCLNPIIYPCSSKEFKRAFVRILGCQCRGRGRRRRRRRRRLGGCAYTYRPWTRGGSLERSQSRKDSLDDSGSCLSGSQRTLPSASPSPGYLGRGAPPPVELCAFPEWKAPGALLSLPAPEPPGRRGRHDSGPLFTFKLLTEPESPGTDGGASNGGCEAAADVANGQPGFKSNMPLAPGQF

[3] = target: T2, Alpha-2C adrenergic receptor (Rattus norvegicus, UniProt P22086)
T2 sequence (P22086 whole entry): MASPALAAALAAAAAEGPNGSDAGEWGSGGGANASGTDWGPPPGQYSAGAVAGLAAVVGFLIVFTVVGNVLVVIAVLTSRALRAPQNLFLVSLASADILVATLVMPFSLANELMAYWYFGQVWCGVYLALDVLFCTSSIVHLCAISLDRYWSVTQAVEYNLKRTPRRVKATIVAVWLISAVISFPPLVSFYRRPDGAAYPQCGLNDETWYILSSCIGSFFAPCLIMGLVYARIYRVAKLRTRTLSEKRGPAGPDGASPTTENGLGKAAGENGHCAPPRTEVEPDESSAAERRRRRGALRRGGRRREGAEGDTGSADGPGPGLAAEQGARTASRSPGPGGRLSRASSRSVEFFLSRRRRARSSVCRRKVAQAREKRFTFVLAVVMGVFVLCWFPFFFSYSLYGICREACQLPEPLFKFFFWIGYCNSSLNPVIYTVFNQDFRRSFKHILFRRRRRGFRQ

[4] = target: T3, Alpha-1A adrenergic receptor (Homo sapiens, UniProt P35348)
T3 sequence (P35348 whole entry): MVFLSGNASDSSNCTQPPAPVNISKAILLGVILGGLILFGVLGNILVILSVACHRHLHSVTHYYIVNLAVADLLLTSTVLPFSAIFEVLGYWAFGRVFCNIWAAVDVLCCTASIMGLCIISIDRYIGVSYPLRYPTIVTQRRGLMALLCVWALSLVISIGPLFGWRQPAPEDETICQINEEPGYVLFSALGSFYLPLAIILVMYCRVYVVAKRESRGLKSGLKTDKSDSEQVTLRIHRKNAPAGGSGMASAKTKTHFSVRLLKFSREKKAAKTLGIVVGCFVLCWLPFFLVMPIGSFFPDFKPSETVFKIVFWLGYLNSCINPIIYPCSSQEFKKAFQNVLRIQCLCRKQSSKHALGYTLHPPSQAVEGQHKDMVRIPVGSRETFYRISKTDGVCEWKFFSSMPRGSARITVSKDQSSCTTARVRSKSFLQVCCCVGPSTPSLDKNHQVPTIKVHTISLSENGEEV

[5] = target: T4, Alpha-1D adrenergic receptor (Homo sapiens, UniProt P25100)
T4 sequence (P25100 whole entry): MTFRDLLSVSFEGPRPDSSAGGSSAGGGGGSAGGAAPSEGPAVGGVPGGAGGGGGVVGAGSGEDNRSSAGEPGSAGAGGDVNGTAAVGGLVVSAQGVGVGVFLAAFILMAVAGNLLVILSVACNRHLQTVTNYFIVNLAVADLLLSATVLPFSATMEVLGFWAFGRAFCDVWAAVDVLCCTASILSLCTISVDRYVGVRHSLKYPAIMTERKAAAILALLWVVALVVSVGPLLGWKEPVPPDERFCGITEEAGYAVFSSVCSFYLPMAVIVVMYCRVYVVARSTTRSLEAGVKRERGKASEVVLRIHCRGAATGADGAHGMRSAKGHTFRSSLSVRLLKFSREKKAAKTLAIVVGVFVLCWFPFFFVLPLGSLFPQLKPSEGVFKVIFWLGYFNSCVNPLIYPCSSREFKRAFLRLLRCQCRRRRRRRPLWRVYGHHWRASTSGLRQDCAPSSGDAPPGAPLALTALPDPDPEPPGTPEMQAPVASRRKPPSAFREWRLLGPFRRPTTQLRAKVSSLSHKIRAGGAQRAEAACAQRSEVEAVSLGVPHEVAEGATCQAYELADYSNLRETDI

[6] = target: T5, 5-hydroxytryptamine receptor 1A (Homo sapiens, UniProt P08908)
T5 sequence (P08908 whole entry): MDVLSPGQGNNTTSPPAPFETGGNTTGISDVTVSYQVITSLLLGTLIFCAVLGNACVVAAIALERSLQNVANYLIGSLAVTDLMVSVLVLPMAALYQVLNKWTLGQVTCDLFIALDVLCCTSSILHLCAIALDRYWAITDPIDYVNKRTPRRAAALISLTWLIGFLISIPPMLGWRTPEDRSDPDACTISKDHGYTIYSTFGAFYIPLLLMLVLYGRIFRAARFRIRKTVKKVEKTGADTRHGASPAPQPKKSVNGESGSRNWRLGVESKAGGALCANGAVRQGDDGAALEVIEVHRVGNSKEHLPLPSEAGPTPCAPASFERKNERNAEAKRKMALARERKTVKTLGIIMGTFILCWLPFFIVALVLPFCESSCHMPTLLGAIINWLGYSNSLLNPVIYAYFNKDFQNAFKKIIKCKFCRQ

Sequence of D(2) dopamine receptor (P61169 whole entry): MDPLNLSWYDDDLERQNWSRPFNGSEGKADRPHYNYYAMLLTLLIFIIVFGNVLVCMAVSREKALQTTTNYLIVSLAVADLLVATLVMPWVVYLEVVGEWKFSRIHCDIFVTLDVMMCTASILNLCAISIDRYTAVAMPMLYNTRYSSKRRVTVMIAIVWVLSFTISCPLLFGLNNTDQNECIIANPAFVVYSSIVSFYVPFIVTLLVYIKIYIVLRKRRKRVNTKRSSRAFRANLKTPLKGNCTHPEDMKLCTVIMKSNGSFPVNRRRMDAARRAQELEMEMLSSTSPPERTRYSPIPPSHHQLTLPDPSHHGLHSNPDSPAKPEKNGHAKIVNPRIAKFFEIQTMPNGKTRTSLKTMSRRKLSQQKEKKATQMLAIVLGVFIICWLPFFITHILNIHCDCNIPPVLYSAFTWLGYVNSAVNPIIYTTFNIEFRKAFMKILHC

SMILES | Ki [1] | Ki [2] | Ki [3] | Ki [4] | Ki [5] | Ki [6]
COc1ccccc1N1CCN(CCN(C(=O)C2CCCCC2)c2ccccn2)CC1 | 347 nM | 661 nM | 1260 nM | – | – | –
O=C(CCCN1CCC2(CC1)C(=O)NCN2c1ccccc1)c1ccc(F)cc1 [8-[4-(4-fluorophenyl)-4-oxidanylidene-butyl]-1-phenyl-1,3,8-triazaspiro[4.5]decan-4-one] | – | – | – | 20.4 nM | 8.32 nM | –

Next, values leading:

Ki [1] | Ki [2] | Ki [3] | Ki [4] | Ki [5] | Ki [6] | SMILES
871 nM | – | > 10000 nM | – | – | – | COc1ccccc1N1CCN(CCN(C(=O)C2CCCCC2)c2ccccc2[N+](=O)[O-])CC1 [N-[2-[4-(2-methoxyphenyl)-1-piperazinyl]-ethyl]-N-(2-nitrophenyl)cyclohexanecarboxamide]
316 nM | 1.02 nM | > 10000 nM | 5.13 nM | 4.17 nM | 0.89 nM | COc1ccccc1N1CCN(CCN(C(=O)C2CCCCC2)c2ccccc2OC)CC1 [Rec 27/0074]
4790 nM | 646 nM | > 10000 nM | 224 nM | 724 nM | 1.05 nM | COc1ccc(Br)c(N2CCN(CCN(C(=O)C3CCCCC3)c3ccccc3OC(F)(F)F)CC2)c1 [Rec 27/0224]
